Reference: patent US20230076515A1, “STIMULI THAT HYPERACTIVATE RESIDENT DENDRITIC CELLS FOR CANCER IMMUNOTHERAPY” (Children's Medical Center Corporation, priority 2019, published 2023)

What was measured:
[1] = test system: T cells from skin draining lymph nodes; test: In vivo OVA immunization and T cell re-stimulation; set-up: species or system mouse; settings: for antigen-specific tetramer+IFNγ+ T cell responses: 7 days post immunization with OVA, 7 days ex vivo re-stimulation with OVA-loaded BMDC
Procedure: Flow cytometry: After FcR blockade, 7 days BMDCs were resuspended in MACS buffer (PBS with 1% FCS and 2 mM EDTA), and stained with the following fluorescently conjugated antibodies (BioLegend): anti-CD11c (clone N418), anti-I-A/I-E (clone M5/114.15.2), anti-CD40 (clone 3/23), anti-CD80(16-10A1), anti-CD69 clone (H1.2F3), anti-H-2Kb (clone AF6-88.5). Single cell suspension from the tumor or draining inguinal lymph nodes, or skin inguinal adipose tissue were resuspended in MACS buffer (PBS with 1% FCS and 2 mM EDTA), and stained with the following fluorescently conjugated antibodies (BioLegend): anti-CD8α (clone 53-6.7), anti-CD4 (clone RM4-5), anti-CD44 (clone IM7), anti-CD62L (MEL-14), anti-CD3 (17A2), anti-CD103 (2E7), anti-CD69 clone (H1.2F3), anti-CD45 (A20 or 30F11). LIVE/DEAD™ Fixable Violet Dead Cell Stain Kit (Molecular probes) was used to determine the viability of cells, and cells were stained for 20 minutes in PBS at 4° C. Draining inguinal lymph nodes T cells were stained with OVA-peptide tetramers at room temperature for 1 h. PE-conjugated H2K(b) SIINFEKL (OVA 257-264; SEQ ID NO: 1) and APC conjugated I-A(b) AAHAEINEA (OVA 329-337; SEQ ID NO: 2) were used. I-A(b) and H2K(b) associated with CLIP peptides were used as isotype controls. Tetramers were purchased for NIH tetramer core facility. in some experiments, FITC anti-CD8.1 (clone Lyt-2.1 CD8-E1) purchased from accurate chemical was used with tetramers. To determine absolute number of cells, COUNTBRIGHT counting beads (Molecular probes) were used, following the manufacturer's protocol. Appropriate isotype controls were used as a staining control. Data were acquired on a BD FACS ARIA or BD Fortessa. Data were analyzed using FlowJo software.
Intracellular staining: For intracellular cytokine staining, cells were stimulated with 50 ng/ml phorbol 12-myristate 13-acetate (PMA) and 500 ng/ml ionomycin (Sigma-Aldrich) in the presence of GolgiStop (BD) and brefeldin A for 4-5 h. Cells were then washed twice with PBS, and stained with LIVE/DEAD™ Fixable violet or green Dead Cell Stain Kit (Molecular probes) in PBS for 20 min at 4° C. Cells were washed with MACS buffer, and stained for appropriate surface markers for 20 min at 4° C. After two washes, cells were fixed and permeabilized using BD Cytofix/Cytoperm kit for 20 min at 4° C., then washed with 1× perm wash buffer (BD) per manufacturer's protocol. Intracellular cytokine staining was performed in 1× perm buffer for 20-30 min at 4° C. with the following conjugated antibodies all purchased from BioLegend: anti-Ki67 (clone 16A8), anti-IFN-γ (clone XMG1.2), anti TNFα (clone MP6-XT22), anti-Gata3 (16E10A23), anti-IL4(11B11), anti-IL10 (clone JES5-16E3). Data were acquired on a BD FACS ARIA or BD Fortessa. Data were analyzed using FlowJo software.
In vivo immunization and T cell re-stimulation: Female C57BL/6J mice aged 8 weeks, were immunized subcutaneously (s.c.) on the left lower back with either 150 μg/mouse endotoxin-free OVA plus 10 μg/mouse LPS emulsified in incomplete Freund's adjuvant, or with 150 μg/mouse endotoxin-free OVA, plus 65 μg/mouse oxPAPC or PGPC, plus 10 μg/mouse LPS emulsified in incomplete Freund's adjuvant. In some experiments mice were injected s.c. with OVA alone or with LPS emulsified in Alum. 7 or 40 days after immunization, CD4^+ T cells and CD8^+ T cells were isolated from the draining lymph nodes of immunized mice by magnetic cell sorting with anti-CD4 beads or anti-CD8 beads and columns (Miltenyi Biotech). Enriched cells were then sorted as live CD45^+CD3^+CD4^+ cells or live CD45^+CD3^+CD8^+ using FACS ARIA. Purity post-sorting was >98%. Sorted cells were then seeded in 96-well plates at a concentration of 100.000 cells per well in the presence of 10-20×10^3 DC pulsed with serial dilutions of OVA, starting at 1 mg/ml. […]

FLT3-DCs = test: FLT3-DC stimulation, cytokine ELISA and LDH release; format: cell-based, mouse; settings: ELISA
Procedure: FIGS. 14A-B. Oxidized phospholipids induce hyperactive cDC1 and cDC2 cells that display a hypermigratory phenotype. (A) Wild-type or NLRP3^−/− or Casp1/11^−/− BMDCs generated using FLT3L were either left untreated (none) or treated with LPS alone, or Alum alone, or PGPC alone for 24 h, or BMDCs were primed for 3 h with LPS, then treated with indicated stimuli for 21 h. IL-1β and TNFα release was monitored by ELISA. The percentage of cell death was measured by LDH release in the cell supernatants. Means and SDs from three replicates are shown and data are representative of at least three independent experiments. (B) Wild-type BMDCs generated using FLT3L were sorted as cDC1 or cDC2 cells then treated with indicated stimuli as in A. IL-1β and TNFα release was monitored by ELISA. The percentage of cell death was measured by LDH release in the cell supernatants. Means and SDs from three independent experiments done in two different laboratories.
Virtually all studies assessing the state of cell-hyperactivation have focused on the ability of bone marrow derived DC (BMDCs), generated with the cytokine granulocyte-macrophage colony-stimulating factor (GM-CSF), to release IL-1β while retaining viability. […] To examine whether conventional DCs can achieve a hyperactivation state, we used BMDCs generated using the DC hematopoietin Fms-like tyrosine kinase 3 ligand (Flt3L). […]

OT-II naïve CD4+ T cells = test: OT-II in vitro T-cell stimulation; format: cell-based, mouse; settings: OVA-loaded BMDCs co-cultured with OT-II T cells; ELISA
Procedure: OT-I and OT-II in vitro T-cell stimulation: Splenic CD8^+ and CD4^+ T cells were sorted from OT-I and OT-II mice by magnetic cell sorting with anti-CD8 beads or anti-CD4 beads respectively (Miltenyi Biotech). Sorted T cells were then seeded in 96-well plates at a concentration of 100.000 cells per well in the presence of either 20.000 or 10.000 DCs (5:1 or 10:1 ratio) that were pretreated with either LPS (activation stimuli) or LPS+PGPC (hyperactivation stimuli) or LPS+Alum (pyroptotic stimuli) and pulsed (or not) with OVA protein or SIINFEKL (SEQ ID NO: 1) peptide at 100 μg/ml for 2 hours. 5 days post culture, supernatants were collected and clarified by centrifugation for short-term storage at −20° C. and cytokine measurement by ELISA.
Intracellular staining: For intracellular cytokine staining, cells were stimulated with 50 ng/ml phorbol 12-myristate 13-acetate (PMA) and 500 ng/ml ionomycin (Sigma-Aldrich) in the presence of GolgiStop (BD) and brefeldin A for 4-5 h. Cells were then washed twice with PBS, and stained with LIVE/DEAD™ Fixable violet or green Dead Cell Stain Kit (Molecular probes) in PBS for 20 min at 4° C. Cells were washed with MACS buffer, and stained for appropriate surface markers for 20 min at 4° C. […] Data were analyzed using FlowJo software.

BMDCs = test: BMDC stimulation, cytokine ELISA and LDH release; format: cell-based, mouse; settings: LPS alone or LPS priming 3 h then stimuli 21 h, ELISA
Procedure: Cell culture: BMDCs were generated by differentiating bone marrow in IMDM (Gibco), 10% B16-GM-CSF derived supernatant, 2 μM 2-mercaptoethanol, 100 U/ml penicillin, 100 μg/ml streptomycin (Sigma-Aldrich) and 10% FBS. 6 day after culture, BMDCs were washed with PBS and re-plated in IMDM with 10% FBS at a concentration of 1×10^6 cells/ml in a final volume of 100 μl. CD11c^+ DC purity was assessed by flow cytometry using BD Fortessa and was routinely above 80%. Splenic DCs from mice injected with B16-FLT3 for 15 days, were purified as CD11c^+MHC^+ live cells, then plated at a concentration of 1×10^6 cells/ml in a final volume of 100 μl in complete IMDM. To induce hyperactive or pyroptotic BMDCs, DCs were primed with LPS (1 μg/ml) for 3 hours, then stimulated with OxPAPC or PGPC (100 μg/ml) or alum (100 μg/ml) for 21 h in complete IMDM. […]
LDH Assay and ELISAs: Fresh supernatants were clarified by centrifugation after BMDC stimulation, then assayed for LDH release assay using the Pierce LDH cytotoxicity colorimetric assay kit (Life Technologies) following the manufacturer's protocol. Measurements for absorbance readings were performed on a Tecan plate reader at wavelengths of 490 nm and 680 nm. […] ELISA for IL-1β, TNFα, IL-10, IL-12p70, IFNγ, IL-2, IL-13, IL-4 and IL-17 were performed using eBioscience Ready-SET-Go! […]

[2] = OVA immunization, 40 days post-immunization, ex vivo re-stimulation with OVA-loaded BMDCs

CCCCCCCCCCCCCCCC(=O)OC[C@H](COP(=O)([O-])OCC[N+](C)(C)C)OC(=O)CCCC(=O)O [PGPC, [(2R)-2-(4-carboxybutanoyloxy)-3-hexadecanoyloxypropyl] 2-(trimethylazaniumyl)ethyl phosphate] was tested, and the “antigen-specific tetramer+IFNγ+ T cell responses” value [1] was “highest frequency of tetramer+IFNγ+ responses” and the “effector and memory T cell generation” value ([1]; OVA plus LPS plus lipid, in IFA) was “enhance the magnitude of effector and memory T cell generation”.

In the case of lipopolysaccharide [LPS], the “antigen-specific tetramer+IFNγ+ T cell responses” value [1] is reported as “higher IFNγ effector function”, the “T central memory cells (TCM) in dLN” value ([1]; 40 days post-immunization with OVA) is reported as “less abundant” and the “IFNγ production by re-stimulated T cells” value [1, 2] is reported as “producing IFNγ, IL-10, IL-4 and IL-13”. The “IL-10, IL-4 and IL-13 production by re-stimulated T cells” value [1, 2] was “producing IFNγ, IL-10, IL-4 and IL-13”, the IL-1β release (FLT3-DCs) was “did not induce IL-1β release from DCs” and the “release of IL-10 and IL-13 (TH2-associated cytokines)” value (OT-II naïve CD4+ T cells) was “large amounts of IL-10, and IL-13”. The IL-1β release (BMDCs) was “did not induce the release of IL-1β”.
